Assay type in all cases: cell-based, human
One assay has as its system HCT-116, DLD-1 and U2OS. The note with it: read-out: IC50 (cell viability).
For the next assay, the system named is HeLa-C604Y. Put plainly: Proliferation/colony formation assay. The note with it: read-out: median IC50, three independent experiments.
In another assay the test system is HCT-116-C604Y. Put plainly: Proliferation/colony formation assay. The conditions noted are these: read-out: median IC50, three independent experiments.
The next assay deals with DLD-1. Put plainly: Proliferation/colony formation assay. The conditions noted are these: read-out: median IC50; DLD-1 parental; three independent experiments.
The subject of a further assay is HeLa. Put plainly: Proliferation/colony formation assay. The conditions noted are these: read-out: median IC50; HeLa parental; three independent experiments.
The test system of a further assay is HeLa-I598F. Put plainly: Proliferation/colony formation assay. The note with it: read-out: median IC50, three independent experiments.
In the next assay the test system is HCT-116-I531M. Put plainly: Proliferation/colony formation assay. The note with it: read-out: median IC50, three independent experiments.
In a further assay the test system is HCT-116. Put plainly: Proliferation/colony formation assay. The note with it: read-out: median IC50; HCT-116 parental; three independent experiments.
A further assay concerns HeLa-C604F. Put plainly: Proliferation/colony formation assay. The note with it: read-out: median IC50, three independent experiments.
The test system of the next assay is DLD-1-S611R. Put plainly: Proliferation/colony formation assay. The conditions noted are these: read-out: median IC50, three independent experiments.
The mark [1] stands for this setting: three cancer cell lines HCT-116, DLD-1 and U2OS, Supplementary Figures 2a-c.

Like-named read-outs stand apart in the source and are kept apart here. Where only a bound is given, the exact number is not on record here.

This passage reports IC50 results from publication PMC4867491 (Oncogene, 2015).

A word on the IC50: it is the concentration at which inhibition is half-maximal.

With `c1nc2nc(Nc3ccc(N4CCOCC4)cc3)nc(NC3CCCCC3)c2[nH]1` [Reversine, reversine], in the assay with HCT-116, DLD-1 and U2OS (Homo sapiens), the IC50 was in the range of 63 to 153 nM.
In the case of `CCc1cccc(CC)c1NC(=O)c1nn(C)c2c1CCc1cnc(Nc3ccc(C(=O)NC4CCN(C)CC4)cc3OC(F)(F)F)nc1-2` [NMS-P715], the IC50 is > 150 nM in the assay with HCT-116, DLD-1 and U2OS (setting [1]); > 2000 nM in the assay on HeLa-C604Y; > 2000 nM with HCT-116-C604Y.
As to AZ3146, the IC50 in the assay on HeLa-C604Y is > 5000 nM; with DLD-1 it was 719 nM; in the assay with HeLa it was 1340 nM; with HeLa-I598F, 3850 nM; with HCT-116-I531M, 3060 nM; with HCT-116, 560 nM. Also, the IC50 was > 5000 nM with HCT-116-C604Y, 2740 nM in the assay on HeLa-C604F and > 5000 nM with DLD-1-S611R.
Consider `Cc1cc(N2CCOCC2)ccc1Nc1nc(NC2CCCCC2)c2[nH]cnc2n1` [MPI-0479605], for which the IC50 in the assay with HCT-116, DLD-1 and U2OS (setting [1]) is 63 to 153 nM; with HeLa-C604Y it was > 2000 nM; with HCT-116-C604Y it was > 2000 nM; with HeLa-C604F, > 2000 nM; in the assay on DLD-1-S611R it was > 2000 nM.
